pKi: −log10 of the molar value.
Molecular target: Mu-type opioid receptor (Rattus norvegicus, UniProt P33535)
Sequence (P33535 whole entry): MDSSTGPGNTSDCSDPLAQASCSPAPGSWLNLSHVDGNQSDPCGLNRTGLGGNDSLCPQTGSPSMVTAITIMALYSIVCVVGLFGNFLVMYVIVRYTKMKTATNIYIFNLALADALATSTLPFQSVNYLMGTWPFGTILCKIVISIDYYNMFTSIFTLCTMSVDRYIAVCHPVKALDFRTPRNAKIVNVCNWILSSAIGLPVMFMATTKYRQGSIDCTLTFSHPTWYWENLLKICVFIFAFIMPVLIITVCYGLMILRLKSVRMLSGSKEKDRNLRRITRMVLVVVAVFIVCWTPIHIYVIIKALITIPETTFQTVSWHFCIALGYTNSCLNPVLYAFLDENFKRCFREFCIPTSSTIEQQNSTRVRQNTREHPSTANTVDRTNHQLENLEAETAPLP

Substance: H-YGGFMTSEKSQTPLVTLFKNAIVKNAHKKGQ-OH [Beta-Endorphin]
- pKi: 8.77

From BindingDB's records for PubMed 7815359 (University of Pennsylvania, 1995)
